Results on eight compounds are retold here after patent US7829557B2, “2-heterosubstituted 3-aryl-4H-1-benzopyran-4-ones as novel therapeutics in breast cancer” (The Ohio State University Research Foundation, priority 2006, dated 2010).

Each structure is given as a SMILES string. Like-named read-outs stand apart in the source and are kept apart here.

In one experiment the test system is MCF-7 cells. Put plainly: Dose response / IC50 for effects on proliferation in MCF-7 cells. The format is cell-based, human. On the procedure:
Several members of the combinatorial library that was prepared in accordance with the methods of this invention have been tested for effects on proliferation in MCF-7 cells and MDA-MB-231 cells.
Dose response studies were performed with compounds from the combinatorial library. Compounds 234, 220, 244, 230, 258, YWK-II-14 and 4-OH-Tamoxifen were performed.
IC50 ranges for several members of the combinatorial library were within 95% confidence intervals.

The subject of experiment [1] is human breast cancer cell lines. Put plainly: Suppression of proliferation of human breast cancer cell lines. The experiment is classed as cell-based. The following applies: suppressing proliferation of human breast cancer cell lines; most potent of the series. From the text:
Thus, we designed and synthesized several isoflavones containing a basic side chain connected through either an oxygen or a sulfur linkage (synthetic scheme—FIG. 9).

The mark [2] stands for this setting: 95% confidence interval, no unit in this head, cell line taken from Example 5 (MCF-7), read-out: IC50 Range.
[3] abbreviates: from GraphPad Prism fit, read-out: IC50 (From Program).
Setting [4] is: midpoint and half-width of the IC50 range, read-out: IC50 ± ΔIC50.

Consider `CC/C(=C(\c1ccc(O)cc1)c1ccc(OCCN(C)C)cc1)c1ccccc1` [4-OH Tamoxifen, reference compound], for which the IC50 – broadly, the concentration at which inhibition is half-maximal – is 3.61 to 4.93 µM in the experiment with MCF-7 cells (setting [2]), 4.22 µM in the experiment with MCF-7 cells (setting [3]) and 4.27 ± 0.66 µM in the experiment on MCF-7 cells (setting [4]).
For `COc1ccc(-c2c(Sc3ccc(O)cc3)oc3cc(OCc4ccccc4)ccc3c2=O)cc1` [Compound 220], the 50% inhibitory concentration (IC50) with MCF-7 cells (setting [2]) was 2.87 to 7.68 µM; with MCF-7 cells (setting [3]), 4.7 µM; with MCF-7 cells (setting [4]), 5.28 ± 2.4 µM.
Turning to `COc1ccc(-c2c(Sc3ccc(OCCN4CCCCC4)cc3)oc3cc(OCc4ccccc4)ccc3c2=O)cc1` [Compound 230], the results for the IC50 in the experiment on MCF-7 cells (setting [2]), in the experiment on MCF-7 cells (setting [3]) and in the experiment with MCF-7 cells (setting [4]) were 2.41 to 7.23 µM, 4.17 µM and 4.82 ± 2.41 µM, respectively.
For the compound `COc1ccc(-c2c(Sc3ccc(OCCN4CCCCC4)cc3)oc3cc(O)ccc3c2=O)cc1` [Compound 234], the IC50 with MCF-7 cells (setting [2]) is 0.36 to 0.92 µM; in the experiment with MCF-7 cells (setting [3]), 0.58 µM; in the experiment with MCF-7 cells (setting [4]) it was 0.64 ± 0.28 µM.
With `O=c1c(-c2ccc(O)cc2)c(Sc2ccc(O)cc2)oc2cc(O)ccc12` [Compound 244], the IC50 in the experiment with MCF-7 cells (setting [2]) is 7.86 to 15.7 µM; with MCF-7 cells (setting [3]), 11.1 µM; in the experiment with MCF-7 cells (setting [4]), 11.8 ± 3.94 µM.
With `COc1ccc(-c2c(Oc3ccc(OCCN4CCCCC4)cc3)oc3cc(OCc4ccccc4)ccc3c2=O)cc1` [Compound 258], the figures for the IC50 in the experiment with MCF-7 cells (setting [2]), with MCF-7 cells (setting [3]) and in the experiment on MCF-7 cells (setting [4]) were 2.3 to 5.88 µM, 3.67 µM and 4.09 ± 1.79 µM, respectively.
As for `COc1ccc(-c2c(Sc3ccc(OCCN4CCCCC4)cc3)oc3cc(O)ccc3c2=O)cc1` [Compound 310a], the IC50 in experiment [1] stood at 0.058 µM.
In the case of `COc1ccc(-c2c(Oc3ccc(OCCN4CCCCC4)cc3)oc3cc(O)ccc3c2=O)cc1` [YWK-II-14], the IC50 in the experiment with MCF-7 cells (setting [2]), in the experiment on MCF-7 cells (setting [3]) and in the experiment on MCF-7 cells (setting [4]) was around 6.31 µM in each case.
